Assay results reported in patent US11760761B2, “Methods and compositions for targeting PD-L1” (Aligos Therapeutics, Inc., priority 2020, dated 2023).

Legend:
PD-1/PD-L1 interaction = PD-1/PD-L1 interaction (Homo sapiens (Human), UniProt Q9NZQ7); test: PD-1/PD-L1 NFAT Reporter Assay (Jurkat T cells / PD-L1 expressing CHO cells co-culture); type: cell-based; conditions: for Emax: Jurkat, maximum NFAT-activation level relative to the positive control (10 nM Atezolizumab); for EC50: co-culture 6 hrs at 37° C., luciferase
Description: Blocking the PD-1/PD-L1 interaction will release the inhibitory signal and results in TCR signaling and NFAT-mediated luciferase activity.
CHO cells expressing surface-bound anti-CD3 antibodies and PD-L1 were first seeded overnight and treated with the compounds. Jurkat cells overexpressing PD-1 and a luciferase construct under NF-AT promoter were then immediately seeded on the monolayer of CHO cells. The co-culture was then incubated for 6 hrs at 37° C. Luciferase activity was assessed by adding the ONE-Glo reagent and measuring luminescence with a plate reader. EC50s values were determined from the fit of the dose-response curves Emax (%) corresponds to the maximum NFAT-activation level reached by a given compound relative to the positive control (10 nM Atezolizumab).

PDL1/PD1 = PDL1/PD1 (Homo sapiens (Human), UniProt Q9NZQ7); test: PDL1/PD1 Binding Assay; conditions: PDL1-6xHis 0.3 nM, PD1-Fc-Avi-Biotin 2.5 nM, Acceptor/Donor beads; read-out: PD-1/PD-L1 PPI IC50
Description: Compounds to be tested were serially diluted in DMSO, and further diluted in assay buffer (25 mM Hepes pH 7.4, 150 mM NaCl, 0.005% Tween 20, BSA 0.01%). Diluted compounds were added to the wells with final concentration of DMSO at 1%. PDL1-6×His protein was added to the wells, mixed well with compound. The plates were incubated for 30 min at room temperature. PD1-Fc-Avi-Biotin protein was added to the wells. Final concentration of PDL1 and PD1 protein is 0.3 nM and 2.5 nM, respectively. After a binding time of 30 min at room temperature, Anti-6×His Acceptor beads (final concentration 20 ug/ml) were added to the wells, and the incubation continued for 1 h. Streptavidin Donor beads (final concentration 20 ug/mL) were added at reduced light. The plates were sealed with foil and incubated in the dark for additional 1 h or overnight before reading on an Envision reader. The IC50 values were determined by fitting the curves using a four-parameter equation in Graphpad Prism 8.

Chain of PD-1/PD-L1 interaction (Q9NZQ7 19-290): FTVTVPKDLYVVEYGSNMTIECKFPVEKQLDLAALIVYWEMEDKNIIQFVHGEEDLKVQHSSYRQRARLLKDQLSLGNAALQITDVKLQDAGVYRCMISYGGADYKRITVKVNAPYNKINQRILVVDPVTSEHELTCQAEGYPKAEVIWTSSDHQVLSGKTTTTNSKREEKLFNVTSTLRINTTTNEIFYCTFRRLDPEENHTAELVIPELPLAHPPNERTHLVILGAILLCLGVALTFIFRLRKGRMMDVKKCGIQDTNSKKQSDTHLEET
Chain of PDL1/PD1 (Q9NZQ7 19-238): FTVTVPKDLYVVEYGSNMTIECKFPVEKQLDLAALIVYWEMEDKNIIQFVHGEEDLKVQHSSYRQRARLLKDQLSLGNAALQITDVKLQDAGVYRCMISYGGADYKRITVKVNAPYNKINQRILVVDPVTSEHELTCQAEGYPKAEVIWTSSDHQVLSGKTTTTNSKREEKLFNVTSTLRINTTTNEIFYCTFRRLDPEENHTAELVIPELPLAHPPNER

SMILES | Emax (PD-1/PD-L1 interaction) | EC50 (PD-1/PD-L1 interaction) | IC50 (PDL1/PD1)
CCOC(=O)CN[C@@H]1CCc2cc(-c3cccc(-c4cccc(-c5cnc(CN6CC7(CCC(=O)N7)C6)c(OC)n5)c4Cl)c3Cl)cc(OC)c21 (single isomer, unassigned) [Compound A-2] | 85% | 100 to 1000 nM | ≤ 10 nM
CCOC(=O)C1CN([C@H]2CCc3cc(-c4cccc(-c5cccc(-c6cnc(CN7CC8(CCC(=O)N8)C7)c(OC)n6)c5Cl)c4Cl)cc(OC)c32)C1 (single isomer, unassigned) [Compound A-3] | 84% | 100 to 1000 nM | ≤ 10 nM
CCOC(=O)C1CN([C@@H]2CCc3cc(-c4cccc(-c5cccc(-c6cnc(CN7CC8(CCC(=O)N8)C7)c(OC)n6)c5Cl)c4Cl)cc(OC)c32)C1 (single isomer, unassigned) [Compound A-4] | 18% |  | ≤ 10 nM
COc1cc(-c2cccc(-c3cccc(-c4cnc(CN5CC6(CCC(=O)N6)C5)c(OC)n4)c3Cl)c2Cl)cc2c1[C@@H](N1CC(O)C1)CC2 (single isomer, unassigned) [Compound A-5] | 102% | 100 to 1000 nM | ≤ 10 nM
COc1cc(-c2cccc(-c3cccc(-c4cnc(CN5CC6(CCC(=O)N6)C5)c(OC)n4)c3Cl)c2Cl)cc2c1[C@H](N1CC(O)C1)CC2 (single isomer, unassigned) [Compound A-6] | 32% |  | ≤ 10 nM
COc1cc(-c2cccc(-c3cccc(-c4cnc(CN5CC6(CCC(=O)N6)C5)c(OC)n4)c3Cl)c2Cl)cc2c1[C@@H](N1CC3(CCC(=O)N3)C1)CC2 (single isomer, unassigned) [Compound A-7] | 24% |  | ≤ 10 nM
COc1cc(-c2cccc(-c3cccc(-c4cnc(CN5CC6(CCC(=O)N6)C5)c(OC)n4)c3Cl)c2Cl)cc2c1C[C@@H](N1CC(O)C1)C2 (single isomer, unassigned) [Compound A-10] | 172% | 10 to 100 nM | ≤ 10 nM
COc1cc(-c2cccc(-c3cccc(-c4cnc(CN5CC6(CCC(=O)N6)C5)c(OC)n4)c3Cl)c2Cl)cc2c1C[C@H](N1CC(O)C1)C2 (single isomer, unassigned) [Compound A-11] | 84% | 1000 to 10000 nM | ≤ 10 nM
COc1cc(-c2cccc(-c3cccc(-c4cnc(CN5CC6(CCC(=O)N6)C5)c(OC)n4)c3Cl)c2Cl)cc2c1C[C@@H](N1CC3(CCC(=O)N3)C1)C2 (single isomer, unassigned) [Compound A-12] | 191% | 10 to 100 nM | ≤ 10 nM
COc1cc(-c2cccc(-c3cccc(-c4cnc(CN5CC6(CCC(=O)N6)C5)c(OC)n4)c3Cl)c2Cl)cc2c1C[C@H](N1CC3(CCC(=O)N3)C1)C2 (single isomer, unassigned) [Compound A-13] | 58% | 1000 to 10000 nM | ≤ 10 nM
COc1cc(-c2cccc(-c3cccc(-c4cnc(CN5CC6(CCC(=O)N6)C5)c(OC)n4)c3Cl)c2Cl)cc2c1[C@@H](N1CC(C(=O)O)C1)CC2 (single isomer, unassigned) [Compound B-3] | 112% | 100 to 1000 nM | ≤ 10 nM
COc1cc(-c2cccc(-c3cccc(-c4cnc(CN5CC6(CCC(=O)N6)C5)c(OC)n4)c3Cl)c2Cl)cc2c1[C@H](N1CC(C(=O)O)C1)CC2 (single isomer, unassigned) [Compound B-4] | 65% | 1000 to 10000 nM | ≤ 10 nM
COc1nc(-c2cccc(-c3cccc(-c4cc5c(c(OC)n4)[C@@H](N4CC6(CN(C(C)=O)C6)C4)CC5)c3Cl)c2Cl)cnc1CNC[C@@H]1CCC(=O)N1 (single isomer, unassigned) [Compound D-16] |  |  | ≤ 10 nM
COc1nc(-c2cccc(-c3cccc(-c4cc5c(c(OC)n4)[C@H](NC[C@@H]4CCC(=O)N4)CO5)c3Cl)c2Cl)cc(C)c1CN1CC2(C1)CN(C(C)=O)C2 (single isomer, unassigned) [Compound E-5] |  |  | ≤ 10 nM
CCOC(=O)C1CN([C@@H]2CCc3cc(-c4cccc(-c5cccc(-c6cnc(CN7CC(O)C7)c(OC)n6)c5Cl)c4Cl)nc(OC)c32)C1 (single isomer, unassigned) [Compound G-2] |  |  | ≤ 10 nM
CCOC(=O)C1CN([C@H]2CCc3cc(-c4cccc(-c5cccc(-c6cnc(CN7C[C@@H](O)[C@@H]7C)c(OC)n6)c5Cl)c4Cl)nc(OC)c32)C1 (single isomer, unassigned) [Compound G-3] |  | > 10000 nM | 

SMILES | Emax (PD-1/PD-L1 interaction) | EC50 (PD-1/PD-L1 interaction) | IC50 (PDL1/PD1)
CCOC(=O)C1CN([C@@H]2CCc3cc(-c4cccc(-c5cccc(-c6cnc(CN7C[C@@H](O)[C@@H]7C)c(OC)n6)c5Cl)c4Cl)nc(OC)c32)C1 (single isomer, unassigned) [Compound G-4] |  | 1000 to 10000 nM | 
COc1nc(-c2cccc(-c3cccc(-c4cc5c(c(OC)n4)[C@@H](NC[C@@H]4CCC(=O)N4)CC5)c3Cl)c2Cl)cnc1CN1CC2(CCC(=O)N2)C1 [Compound C-1] |  | ≤ 10 nM | 
COc1nc(-c2cccc(-c3cccc(-c4cc5c(c(OCC(C)C)n4)C(NC[C@@H]4CCC(=O)N4)CC5)c3Cl)c2Cl)cnc1CN1CC2(CCC(=O)N2)C1 (stereo partly shown) [Compound C-13] |  | 10 to 100 nM | 
COc1nc(-c2cccc(-c3cccc(-c4cc5c(c(OC)n4)[C@@H](NC[C@@H]4CCC(=O)N4)CC5)c3Cl)c2Cl)cnc1CN1CC2(C1)CN(C(C)=O)C2 [Compound D-1] |  | ≤ 10 nM | 
COc1nc(-c2cccc(-c3cccc(-c4cc5c(c(OC)n4)[C@H](NC[C@@H]4CCC(=O)N4)CC5)c3Cl)c2Cl)cnc1CN1CCCC1 [Compound D-12] |  |  | ≤ 10 nM
COc1nc(-c2cccc(-c3cccc(-c4cc5c(c(OC)n4)[C@@H](NC[C@@H]4CCC(=O)N4)CC5)c3Cl)c2Cl)ccc1CNC[C@@H]1CCC(=O)N1 [Compound E-1] |  | ≤ 10 nM | 
COc1nc(-c2cccc(-c3cccc(-c4cc5c(c(OC)n4)[C@@H](NC[C@@H]4CCC(=O)N4)CC5)c3Cl)c2Cl)cc(C)c1CN1CC2(C1)CN(C(C)=O)C2 [Compound E-2] |  | ≤ 10 nM | 
COc1nc(-c2cccc(-c3cccc(-c4cc5c(c(OC)n4)C(N4CCC[C@@H](C(=O)O)C4)CC5)c3Cl)c2Cl)cnc1CN1CC(O)C1 (stereo partly shown) [Compound F-1] |  | 10 to 100 nM | 
CCOC(=O)C1CN([C@H]2CCc3cc(-c4cccc(-c5cccc(-c6cnc(CN7CC(O)C7)c(OC)n6)c5Cl)c4Cl)nc(OC)c32)C1 [Compound G-1] |  | 10 to 100 nM | 
COc1nc(-c2cccc(-c3cccc(-c4cc5c(c(OC)n4)[C@@H](N4CC(C(=O)O)C4)CC5)c3Cl)c2Cl)cnc1CN1CC(O)C1 [Compound H-1] |  | 10 to 100 nM | 
CCOC(=O)CN1CCc2c(cc(-c3cccc(-c4cccc(-c5cnc(CN6CC(O)C6)c(OC)n5)c4Cl)c3Cl)nc2OC)C1 [Compound I-1] |  | 100 to 1000 nM | 
CCOC(=O)CN1CCc2c(cc(-c3cccc(-c4cccc(-c5cnc(CN6CC(O)(C(F)(F)F)C6)c(OC)n5)c4Cl)c3Cl)nc2OC)C1 [Compound I-3] |  | 1000 to 10000 nM | 
COc1nc(-c2cccc(-c3cccc(-c4cc5c(c(OC)n4)CCN(CC(=O)O)C5)c3Cl)c2Cl)cnc1CN1CC(O)C1 [Compound J-1] |  | 10 to 100 nM | 
COc1nc(-c2cccc(-c3cccc(-c4cc5c(c(OC)n4)CCN(C[C@@H]4CCC(=O)N4)C5)c3Cl)c2Cl)cnc1CN1CC2(CCC(=O)N2)C1 [Compound K-1] |  | 10 to 100 nM | 
COCCN1CCc2c(cc(-c3cccc(-c4cccc(-c5cnc(CN6CC7(CCC(=O)N7)C6)c(OC)n5)c4Cl)c3Cl)nc2OC)C1 [Compound K-2] |  | 10 to 100 nM | 
